Test results published in US20240180948A1, “4'-HALOGEN CONTAINING NUCLEOTIDE AND NUCLEOSIDE THERAPEUTIC COMPOSITIONS AND USES RELATED THERETO” (priority 2018, published 2024).

Legend:
Plasma stability, human = details: both
Plasma stability, mouse = details: male, CD-1, mouse
[1] = Mouse plasma PK, single dose PO or IP; details: female, ICR (CD-1)
[2] = Liver microsome stability, human; details: both, liver microsomes, pH 7.4
Plasma stability, rat = details: male, Sprague-Dawley
[3] = Liver microsome stability, mouse; details: male, CD-1, mouse, liver microsomes, pH 7.4
[4] = Liver microsome stability, rat; details: male, Sprague-Dawley, liver microsomes, pH 7.4

O=c1ccn([C@@H]2O[C@](F)(CO)[C@@H](O)[C@H]2O)c(=O)[nH]1 [EIDD-02749, 1-[(2R,3R,4S,5S)-5-fluoro-3,4-dihydroxy-5-(hydroxymethyl)tetrahydrofuran-2-yl]pyrimidine-2,4-dione]
half-life at 1 μM (Plasma stability, human): 26 min
half-life at 1 μM (Plasma stability, mouse): 37 min
AUC(0-inf) ([1]; ip, 10 mg/kg): 19.6 µM·h
half-life ([1]; ip, 10 mg/kg): 378 min
AUC(0-inf) ([1]; po, 50 mg/kg): 232 µM·h
bioavailability ([1]; po, 50 mg/kg): 236%
half-life ([1]; po, 50 mg/kg): 498 min
AUC(0-inf) ([1]; po, 150 mg/kg): 392 µM·h
bioavailability ([1]; po, 150 mg/kg): 133%
half-life ([1]; po, 150 mg/kg): 510 min
AUC(0-inf) ([1]; po, 500 mg/kg): 755 µM·h
bioavailability ([1]; po, 500 mg/kg): 77%
half-life ([1]; po, 500 mg/kg): 774 min
half-life at 1 μM [2]: 22 min
half-life at 1 μM (Plasma stability, rat): 22 min
half-life at 1 μM [3]: 27 min
half-life at 1 μM [4]: 25 min

CC(C)C(=O)OC[C@@]1(F)OC(n2ccc(=O)[nH]c2=O)C(O)[C@@H]1O (stereo partly drawn) [EIDD-2947, [(2S,3S)-5-(2,4-dioxopyrimidin-1-yl)-2-fluoro-3,4-dihydroxy-tetrahydrofuran-2-yl]methyl 2-methylpropanoate]
half-life at 1 μM (Plasma stability, human): 2 min
half-life at 1 μM (Plasma stability, mouse): 1 min
half-life at 1 μM (Plasma stability, rat): 9 min
half-life at 1 μM [3]: 1 min
half-life at 1 μM [4]: 10 min

CC(C)C(=O)OC[C@@]1(F)O[C@@H](n2ccc(=O)[nH]c2=O)[C@H](OC(=O)C(C)C)[C@@H]1OC(=O)C(C)C [EIDD-2954, [(2S,3S,4R,5R)-5-(2,4-dioxopyrimidin-1-yl)-2-fluoro-3,4-bis(2-methylpropanoyloxy)tetrahydrofuran-2-yl]methyl 2-methylpropanoate]
half-life at 1 μM (Plasma stability, human): 2 min
half-life at 1 μM (Plasma stability, mouse): 1 min
half-life at 1 μM [2]: < 1 min
half-life at 1 μM (Plasma stability, rat): 1 min
half-life at 1 μM [3]: < 1 min
half-life at 1 μM [4]: < 1 min

CC(C)[C@H](N)C(=O)OC[C@@]1(F)O[C@@H](n2ccc(=O)[nH]c2=O)[C@H](O)[C@@H]1O.Cl [EIDD-2971, [(1S)-1-[[(2S,3S,4R,5R)-5-(2,4-dioxopyrimidin-1-yl)-2-fluoro-3,4-dihydroxy-tetrahydrofuran-2-yl]methoxycarbonyl]-2-methyl-propyl]ammonium chloride]
half-life at 1 μM (Plasma stability, human): 81 min
half-life at 1 μM (Plasma stability, mouse): 59 min
half-life at 1 μM [2]: 38 min
half-life at 1 μM (Plasma stability, rat): 50 min
half-life at 1 μM [3]: 11 min
half-life at 1 μM [4]: 33 min
